Measurements reported in EP2102204B1, “NEW AMINOPYRROLO[1,2- A]INDOLE ET AMINOPYRIDAZINO[1,6-A]INDOLE DERIVATIVES, METHOD FOR PREPARING THE SAME AND PHARMACEUTICAL COMPOSITIONS CONTAINING THE SAME” (Les Laboratoires Servier, priority 2007, dated 2008).
Like-named read-outs stand apart in the source and are kept apart here.

How the values were obtained:
[1] = test system: protéine tyrosine hydroxylase (TH); test: Induction of tyrosine hydroxylase in the locus coeruleus of mice (immunodetection and image analysis of brain sections); assay type: in vivo, souris Balb/C; details: i.p. 20 mg/kg, single injection, 3 days after, % par rapport à la valeur moyenne du groupe témoin; for quantité de TH au niveau du LC, coupe 1: coupe 1 du LC (sens antérieur vers postérieur); for quantité de TH au niveau du LC, coupe 2: coupe 2 du LC (sens antérieur vers postérieur); for quantité de TH au niveau du LC, coupe 3: coupe 3 du LC (sens antérieur vers postérieur); for quantité de TH au niveau du LC, coupe 4: coupe 4 du LC (sens antérieur vers postérieur); for quantité de TH au niveau du LC, coupe 5: coupe 5 du LC (sens antérieur vers postérieur); for quantité de TH au niveau du LC, coupe 6: coupe 6 du LC (sens antérieur vers postérieur); for quantité de TH au niveau du LC, coupe 7: coupe 7 du LC (sens antérieur vers postérieur); for quantité de TH au niveau du LC, coupe 8: coupe 8 du LC (sens antérieur vers postérieur)
Text: Il est recherché, parmi les dérivés, ceux qui sont capables d'induire une augmentation de la protéine tyrosine hydroxylase (TH) dans le cerveau de la souris Balb/C, au niveau du locus coeruleus (LC).
Les animaux utilisés sont des souris mâles de la lignée pure Balb/C (Charles River Laboratories), âgées de 7 à 8 semaines au moment du traitement.
Les souris reçoivent une injection unique par voie intrapéritonéale du composé à tester, dissous dans une solution d'HCl 0,04 M (contrôle correspondant : HCl […]) si le composé est suffisamment soluble, ou dans l'huile d'olive 90 % / DMSO 10 % (contrôle correspondant : huile d'olive 90 % / DMSO 10 %) pour les composés insolubles en milieu aqueux.
Trois jours après l'injection de chaque molécule, tous les animaux sont sacrifiés par décapitation. Les cerveaux extraits sont ensuite congelés dans de l'azote liquide et conservés à -80° C.
Des coupes coronales de 8 microns d'épaisseur sont pratiquées le long de l'axe postéro-antérieur du LC et fixées. Les coupes sont transférées sur membranes Immobilon-P. La TH est mesurée par immunodétection et analyse d'image.

[2] = test system: cellules endothéliales confluentes de capillaires bovins; test: Prediction of blood-brain barrier passage (permeability across endothelial cell layer on filter); assay type: in vitro ADME; design: key: élevé; intermédiaire; faible; details: 20 µM; LC-MS-MS in lower compartment after 10, 20, 30, 40 et 60 minutes; result as class
Procedure: Les substances sont incubées à 20 µM dans le compartiment supérieur d'une double cuve séparé du compartiment inférieur soit par un filtre de polycarbonate seul, soit par le même filtre recouvert de cellules endothéliales confluentes de capillaires bovins. L'évaluation de la cinétique de perméabilité est réalisée par quantification LC-MS-MS de la substance inchangée dans le compartiment inférieur après 10, 20, 30, 40 et 60 minutes. Les dérivés testés présentent un passage généralement élevé de la BHE favorisant la cible neurologique. Les résultats sont rendus sous forme de classes : élevé, intermédiaire, faible. Ainsi, l'exemple 17 présente un passage élevé de la BHE.

[3] = Prediction of metabolic stability on liver microsomes; assay type: in vitro ADME; details: 10^-7 M, 0,33 mg prot/ml, NADPH, 0-60 minutes
Procedure: La prédiction de stabilité métabolique est testée par incubation des dérivés à la concentration de 10^-7 M en présence de microsomes hépatiques de souris, rat ou d'homme (0,33 mg prot/ml). Après addition de NADPH (nicotinamide adénine dinucléotide phosphate, forme réduite), des prélèvements sont réalisés à 0, 5, 15, 30 et 60 minutes. La réaction enzymatique est arrêtée avec le méthanol (VN). La protéine est précipitée par centrifugation et le surnageant analysé par LC-MS-MS. La bonne stabilité métabolique de ces dérivés permet d'envisager un traitement per os. TABLEAU III

récepteurs sigma (σ) = test: Receptor affinity, displacement of labelled specific ligand (haloperidol); assay type: binding
Text: (§1) L'affinité pour les récepteurs est déterminée selon les méthodes habituelles de relation entre le ligand spécifique et le récepteur, qui peut être d'origine animale ou un recombinant humain. Elle a été déterminée par la méthode du déplacement du ligand spécifique marqué par le composé étudié, et exprimée par la constante de dissociation Ki. L'affinité réceptorielle pour 28 récepteurs classiques a ainsi été étudiée. L'étude montre que l'induction de TH observée ne passe pas par une affinité vis-à-vis des récepteurs habituellement touchés par les produits psychotropes, comme les récepteurs adrénergiques alpha (de type α2), 5HT (de type 5HT2A), dopaminergiques (de type D1 et D2). Quelques dérivés montrent une affinité non négligeable pour les récepteurs sigma (σ) (ligand halopéridol) ou muscarinique (M). TABLEAU II

[4] = test system: récepteurs adrénergiques alpha (de type α2); test: Receptor affinity, displacement of labelled specific ligand; assay type: binding; details: concentration 10^-5 M
Text: as §1

5HT2A = 5HT2A (Homo sapiens, UniProt P28223); test: as above; assay type: binding
Text: as §1

D1 = D1 (Homo sapiens, UniProt P21728); test: as above; assay type: binding; details: concentration 10^-5 M
Text: as §1

[5] = read-out: % d'inhibition 5HT2A, concentration 10^-5 M

5HT2A, sequence (P28223 whole entry, species assumed): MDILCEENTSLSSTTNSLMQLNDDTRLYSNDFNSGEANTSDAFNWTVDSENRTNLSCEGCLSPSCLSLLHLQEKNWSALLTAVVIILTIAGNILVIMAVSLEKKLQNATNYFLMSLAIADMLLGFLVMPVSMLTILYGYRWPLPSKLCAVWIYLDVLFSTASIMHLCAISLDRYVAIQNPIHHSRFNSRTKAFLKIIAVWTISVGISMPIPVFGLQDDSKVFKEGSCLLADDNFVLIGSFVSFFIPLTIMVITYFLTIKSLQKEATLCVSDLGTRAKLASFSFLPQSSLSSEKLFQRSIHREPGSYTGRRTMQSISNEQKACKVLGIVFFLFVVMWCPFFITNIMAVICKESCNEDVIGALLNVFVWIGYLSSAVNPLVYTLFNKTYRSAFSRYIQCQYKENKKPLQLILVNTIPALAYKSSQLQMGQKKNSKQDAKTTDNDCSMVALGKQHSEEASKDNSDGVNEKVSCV
D1, sequence (P21728 whole entry): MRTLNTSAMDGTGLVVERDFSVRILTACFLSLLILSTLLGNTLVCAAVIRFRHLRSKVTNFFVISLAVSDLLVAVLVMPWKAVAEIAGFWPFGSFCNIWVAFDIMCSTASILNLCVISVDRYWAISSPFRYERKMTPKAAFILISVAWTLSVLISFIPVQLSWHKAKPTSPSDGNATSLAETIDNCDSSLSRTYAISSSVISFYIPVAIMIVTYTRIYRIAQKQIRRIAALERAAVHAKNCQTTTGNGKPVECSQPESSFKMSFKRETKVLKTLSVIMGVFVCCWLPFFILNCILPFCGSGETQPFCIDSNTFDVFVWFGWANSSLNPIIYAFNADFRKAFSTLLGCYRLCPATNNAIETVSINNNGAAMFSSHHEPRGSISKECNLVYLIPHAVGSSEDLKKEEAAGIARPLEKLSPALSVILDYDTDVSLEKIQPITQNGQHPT

Compound: CCCN1CC[C@H]2c3ccccc3N3NC(=O)C[C@@H]1[C@@H]23 (racemic) [Exemple 17, (3aRS,6aSR,10cRS)-4-Propyl 3a,4,5,6,6a,10c-hexahydro-3H-1,4,10b-triazafluoranthén-2-one]
- quantité de TH au niveau du LC, coupe 1 [1]: 73%
- quantité de TH au niveau du LC, coupe 2 [1]: 72%
- quantité de TH au niveau du LC, coupe 3 [1]: 56%
- quantité de TH au niveau du LC, coupe 4 [1]: 38%
- quantité de TH au niveau du LC, coupe 5 [1]: 34%
- quantité de TH au niveau du LC, coupe 6 [1]: 36%
- quantité de TH au niveau du LC, coupe 7 [1]: 13%
- quantité de TH au niveau du LC, coupe 8 [1]: 3%
- passage de la BHE [2]: élevé

Compound: O=C1[C@H]2CCCN[C@@H]2[C@H]2Cc3ccccc3N12 (racemic) [Exemple 47, (4aSR,11aRS,11bSR)-1,2,3,4,4a,11,11a,11b-Octahydropyrido [2',3':3,4]pyrrolo[1,2-a]indol-5-one]
- % de prédiction de stabilité métabolique sur microsomes hépatiques ([3]; Homme): 86%
- % de prédiction de stabilité métabolique sur microsomes hépatiques ([3]; Rat): 85%
- % de prédiction de stabilité métabolique sur microsomes hépatiques ([3]; Souris): 99%

Compound: O=C1NN2c3ccccc3C[C@H]2[C@@H]2NCCC[C@H]12 (racemic) [Exemple 8, (4aSR,11aSR, 11bRS)-1,2,3,4,4a,11,11a,11b-Octahydro-1,6,6a-triazabenzo[a]fluorén-5-one]
- quantité de TH au niveau du LC, coupe 1 [1]: 59%
- quantité de TH au niveau du LC, coupe 2 [1]: 61%
- quantité de TH au niveau du LC, coupe 3 [1]: 59%
- quantité de TH au niveau du LC, coupe 4 [1]: 50%
- quantité de TH au niveau du LC, coupe 5 [1]: 33%
- quantité de TH au niveau du LC, coupe 6 [1]: 17%
- quantité de TH au niveau du LC, coupe 7 [1]: 9%
- quantité de TH au niveau du LC, coupe 8 [1]: 5%
- % de prédiction de stabilité métabolique sur microsomes hépatiques ([3]; Homme): 80%
- % de prédiction de stabilité métabolique sur microsomes hépatiques ([3]; Rat): 52%
- % de prédiction de stabilité métabolique sur microsomes hépatiques ([3]; Souris): 86%

Compound: CN1CCC[C@@H]2C(=O)N3c4ccc(Cl)cc4C[C@H]3[C@@H]21 (racemic) [Exemple 27, (4aSR,11aSR,11bRS)-9-Chloro-1-méthyl-1,2,3,4,4a,11,11a,11b-octahydropyrido[2',3':3,4]pyrrolo[1,2-a]indol-5-one]
- quantité de TH au niveau du LC, coupe 1 [1]: 55%
- quantité de TH au niveau du LC, coupe 2 [1]: 67%
- quantité de TH au niveau du LC, coupe 3 [1]: 54%
- quantité de TH au niveau du LC, coupe 4 [1]: 46%
- quantité de TH au niveau du LC, coupe 5 [1]: 26%
- quantité de TH au niveau du LC, coupe 6 [1]: 29%
- quantité de TH au niveau du LC, coupe 7 [1]: 3%
- quantité de TH au niveau du LC, coupe 8 [1]: 5%
- % d'inhibition σ (récepteurs sigma (σ); concentration 10^-5 M): 10%
- % d'inhibition α2 [4]: 10%
- inhibition at 10 µM (5HT2A; [5]): 84%

Compound: CN1CCC[C@@H]2C(=O)N3c4ccccc4C[C@H]3[C@@H]21 [Exemple 3, (4aSR, 11aSR, 11bRS)-1-Méthyl 1,2,3,4,4a,11,11a,11b-octahydropyrido[2'3':3,4]pyrrolo[1,2-a]indol-5-one]
- quantité de TH au niveau du LC, coupe 1 [1]: 104%
- quantité de TH au niveau du LC, coupe 2 [1]: 97%
- quantité de TH au niveau du LC, coupe 3 [1]: 69%
- quantité de TH au niveau du LC, coupe 4 [1]: 58%
- quantité de TH au niveau du LC, coupe 5 [1]: 49%
- quantité de TH au niveau du LC, coupe 6 [1]: 31%
- quantité de TH au niveau du LC, coupe 7 [1]: 10%
- quantité de TH au niveau du LC, coupe 8 [1]: 8%
- % de prédiction de stabilité métabolique sur microsomes hépatiques ([3]; Homme): 59%
- % de prédiction de stabilité métabolique sur microsomes hépatiques ([3]; Rat): 31%
- % de prédiction de stabilité métabolique sur microsomes hépatiques ([3]; Souris): 61%
- inhibition at 10 µM (D1; read-out: % d'inhibition D1): 39%
- inhibition at 10 µM (5HT2A; concentration 10^-5 M, read-out: % d'inhibition 5HT2A): 84%

Compound: CN1CCC[C@@H]2C(=O)N3c4ccccc4C[C@H]3[C@@H]21 [Exemple 45, (4aS,11aS,11bR)-1-Méthyl-1,2,3,4,4a,11,11a,11b-octahydropyrido[2',3':3,4]pyrrolo[1,2-a]indol-5-one]
- % d'inhibition D1 (D1): 49%
- % d'inhibition α2 [4]: 23%
- inhibition at 10 µM (5HT2A; [5]): 92%
- inhibition at 0.1 µM (5HT2A; read-out: % d'inhibition 5HT2A, concentration 10^-7 M): 13%

Compound: C=CCN1CCC[C@@H]2C(=O)N3c4ccc(OC)cc4C[C@@H]3[C@H]21 (racemic) [Exemple 19, (4aSR,11aRS,11bSR)-1-Allyl-9-méthoxy-1,2,3,4,4a,11,11a,11b-octahydro-pyrido[2',3':3,4]pyrrolo[1,2-a]indol-5-one]
- quantité de TH au niveau du LC, coupe 1 [1]: 49%
- quantité de TH au niveau du LC, coupe 2 [1]: 48%
- quantité de TH au niveau du LC, coupe 3 [1]: 55%
- quantité de TH au niveau du LC, coupe 4 [1]: 50%
- quantité de TH au niveau du LC, coupe 5 [1]: 21%
- quantité de TH au niveau du LC, coupe 6 [1]: 15%
- quantité de TH au niveau du LC, coupe 7 [1]: 6%
- quantité de TH au niveau du LC, coupe 8 [1]: 9%
- % d'inhibition σ (récepteurs sigma (σ); concentration 10^-5 M): 36%
- % d'inhibition σ (récepteurs sigma (σ); concentration 10^-7 M): 10%

Compound: C=CCN1CCC[C@@H]2C(=O)N3c4ccccc4C[C@@H]3[C@H]21 [Exemple 6, (4aSR, 11aRS,11bSR)-1-Allyl-1,2,3,4,4a,11,11a,11b-octahydropyrido[2 3'.3':3,4]pyrrolo[1,2-a]indol-5-one]
- quantité de TH au niveau du LC, coupe 1 ([1]; listed as Ex.6, 20 mg/kg): 65%
- quantité de TH au niveau du LC, coupe 2 ([1]; listed as Ex.6, 20 mg/kg): 62%
- quantité de TH au niveau du LC, coupe 3 ([1]; listed as Ex.6, 20 mg/kg): 50%
- quantité de TH au niveau du LC, coupe 4 ([1]; listed as Ex.6, 20 mg/kg): 53%
- quantité de TH au niveau du LC, coupe 5 ([1]; listed as Ex.6, 20 mg/kg): 41%
- quantité de TH au niveau du LC, coupe 6 ([1]; listed as Ex.6, 20 mg/kg): 27%
- quantité de TH au niveau du LC, coupe 8 ([1]; listed as Ex.6, 20 mg/kg): 6%
